{"source": "patent US9409952B2", "about": "“Peptide-compound cyclization method” (Chugai Seiyaku Kabushiki Kaisha, priority 2011, dated 2016)", "key": {"[1]": {"assay": "PAMPA (parallel artificial membrane permeability assay)", "assay_type": "in vitro ADME", "settings": "PAMPA", "procedure,_shortened": "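Artificial membrane was 10% (w/v) egg lecithin plus 0.5% (w/v) cholesterol in dodecane on a PVDF filter. A 10 mM DMSO stock was added at 0.5% (v/v) to donor buffer (50 mM MOPSO, pH 6.5, 5.0% glycocholic acid). After 18 h at 37 °C, LC/MS or LC/UV gave donor and acceptor levels for Pe.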"}, "[2]": {"assay": "Metabolic stability in human hepatic microsome", "assay_type": "in vitro ADME", "settings": "microsomes"}, "[3]": {"settings": "membrane permeation rate (Pe), 50 mM MOPSO buffer pH 6.5 with 5.0% glycocholic acid, 37° C., 18 hours, read-out: iPAMPA Pe"}, "[4]": {"settings": "pH 7.4, human hepatic microsome, NADPH(+), read-out: CL NADPH(+)"}}, "note": "Where two headings read alike, the source gives them in different places. Starred links: 1 amine or outer side, 2 acyl side, 3 side chain; linkers in the order of their positions; H or OH if unused. Positions of bridges follow the written chain, without caps; N, C: chain ends. Non-standard residues stand in square brackets, D forms with d. Residues, ends and D or L forms follow the SMILES beside them. *: point of attachment. Phe(3-(CH2)4CO) = O=C([C@H](Cc1cccc(CCCCC(=O)[*:3])c1)N[*:1])[*:2]; NMeF = CN[C@@H](Cc1ccccc1)C(=O)O; NMeI = CC[C@H](C)[C@H](NC)C(=O)O; NMeL = CN[C@@H](CC(C)C)C(=O)O; NMeV = CN[C@H](C(=O)O)C(C)C; NMeA = CN[C@@H](C)C(=O)O; Piperidide = C1CCN(*)CC1; dNMeA = CN[C@H](C)C(=O)O; Sar = CNCC(=O)O"}
{"molecule": "CC[C@H](C)[C@@H]1NC(=O)[C@H](Cc2ccccc2)NC(=O)[C@H](CC(C)C)NC(=O)CNC(=O)[C@H]([C@@H](C)O)NC(=O)[C@H](Cc2ccccc2)NC(=O)[C@H](C)N(C)C(=O)C[C@@H](C(=O)N2CCCCC2)NC(=O)[C@H](Cc2ccccc2)NC(=O)[C@H](CC(C)C)N(C)C1=O", "note": "[DP-436] ([NMeA]FTGLFI[NMeL]FD-Piperidide; lactam N-10)", "values": [{"measurement": "Papp at 18 hours, 50 µM", "setting": "[1]; [3]", "value": 45, "unit": "×10⁻⁶ cm/s"}, {"measurement": "microsomal CLint at 1 uM", "setting": "[2]; [4]", "value": 142, "unit": "µL/min/mg"}]}
{"molecule": "C=C1CCC(=O)N[C@@H](CC(C)C)C(=O)N2CCC[C@H]2C(=O)N(C)[C@@H](C(C)C)C(=O)N[C@@H](Cc2ccccc2)C(=O)N(C)[C@@H](Cc2ccccc2)C(=O)N(C)[C@@H](CC(C)C)C(=O)N[C@@H](C)C(=O)N(C)[C@@H]([C@@H](C)CC)C(=O)N[C@H](C(=O)N2CCCCC2)Cc2ccc1cc2", "note": "[DP-869]", "values": [{"measurement": "Papp at 18 hours, 50 µM", "setting": "[1]; [3]", "value": 0.86, "unit": "×10⁻⁶ cm/s"}, {"measurement": "microsomal CLint at 1 uM", "setting": "[2]; [4]", "value": 331, "unit": "µL/min/mg"}]}
{"molecule": "CC(C)C[C@@H]1NC(=O)[C@@H](C)N(C)C(=O)C[C@@H](C(=O)N2CCCCC2)NC(=O)[C@H]([C@@H](C)O)NC(=O)[C@H](CC(C)C)N(C)C(=O)[C@H](CC(C)C)N(C)C(=O)[C@H](Cc2ccccc2)NC(=O)[C@H](CC(C)C)N(C)C(=O)[C@H](Cc2ccccc2)N(C)C1=O", "note": "[DP-343] ([dNMeA]L[NMeF][NMeL]F[NMeL][NMeL]TD-Piperidide; lactam N-9)", "values": [{"measurement": "Papp at 18 hours, 50 µM", "setting": "[1]; [3]", "value": 36, "unit": "×10⁻⁶ cm/s"}, {"measurement": "microsomal CLint at 1 uM", "setting": "[2]; [4]", "value": 427, "unit": "µL/min/mg"}]}
{"molecule": "CC[C@H](C)[C@H](NC(=O)[C@H](CC(C)C)NC(=O)[C@H](Cc1ccccc1)NC(=O)[C@@H]1CC(=O)N[C@@H](C)C(=O)N[C@@H]([C@@H](C)CC)C(=O)N(C)[C@@H](C)C(=O)N(C)[C@@H](Cc2ccccc2)C(=O)N[C@@H]([C@@H](C)O)C(=O)N(C)[C@@H](Cc2ccccc2)C(=O)N[C@@H](CC(C)C)C(=O)N2CCC[C@H]2C(=O)N1)C(=O)N[C@@H](C)C(=O)N1CCCCC1", "note": "[DP-666] (AI[NMeA][NMeF]T[NMeF]LPDFLIA-Piperidide; lactam N-9)", "values": [{"measurement": "Papp at 18 hours, 50 µM", "setting": "[1]; pH 6.5", "value": 3, "unit": "×10⁻⁶ cm/s"}, {"measurement": "microsomal CLint at 1 uM", "setting": "[2]; human, pH 7.4, CL NADPH(+)", "value": 74, "unit": "µL/min/mg"}]}
{"molecule": "CC[C@H](C)[C@H]1C(=O)N(C)[C@@H](CC(C)C)C(=O)N(C)[C@@H](Cc2ccccc2)C(=O)N[C@@H]([C@@H](C)O)C(=O)N(C)[C@@H](Cc2ccccc2)C(=O)N(C)[C@@H](CC(C)C)C(=O)N(C)[C@@H](CC(C)C)C(=O)N[C@H](C(=O)N2CCCCC2)CC(=O)N[C@H](C(C)C)C(=O)N[C@@H](C)C(=O)N1C", "note": "[DP-256] ([dV]A[NMeI][NMeL][NMeF]T[NMeF][NMeL][NMeL]D-Piperidide; lactam N-10)", "values": [{"measurement": "Papp at 18 hours, 50 µM", "setting": "[1]; [3]", "value": 19, "unit": "×10⁻⁶ cm/s"}, {"measurement": "microsomal CLint at 1 uM", "setting": "[2]; [4]", "value": 44, "unit": "µL/min/mg"}]}
{"molecule": "CC(C)C[C@H]1C(=O)N[C@@H]([C@@H](C)O)C(=O)N(C)[C@@H](C)C(=O)N[C@H](C(=O)N2CCCCC2)CC(=O)N[C@H](C)C(=O)N(C)[C@@H](C)C(=O)N(C)[C@@H](Cc2ccccc2)C(=O)N1C", "note": "[DP-538] ([dA][NMeA][NMeF][NMeL]T[NMeA]D-Piperidide; lactam N-7)", "values": [{"measurement": "Papp at 18 hours, 50 µM", "setting": "[1]; [3]", "value": 5.5, "unit": "×10⁻⁶ cm/s"}, {"measurement": "microsomal CLint at 1 uM", "setting": "[2]; [4]", "value": 37, "unit": "µL/min/mg"}]}
{"molecule": "CC(C)C[C@H]1C(=O)N[C@H](C(=O)N2CCCCC2)Cc2cccc(c2)CCCCC(=O)N(C)[C@@H](Cc2ccccc2)C(=O)NCC(=O)N(C)[C@@H](Cc2ccccc2)C(=O)N(C)[C@@H](CC(C)C)C(=O)N(C)[C@@H](CC(C)C)C(=O)N1C", "note": "[DP-844] ([NMeF]G[NMeF][NMeL][NMeL][NMeL][Phe(3-(CH2)4CO)]-Piperidide; lactam N-7)", "values": [{"measurement": "Papp at 18 hours, 50 µM", "setting": "[1]; pH 6.5", "value": 11, "unit": "×10⁻⁶ cm/s"}, {"measurement": "microsomal CLint at 1 uM", "setting": "[2]; human, pH 7.4, CL NADPH(+)", "value": 356, "unit": "µL/min/mg"}]}
{"molecule": "CC[C@H](C)[C@H]1C(=O)N[C@H](C(=O)N2CCCCC2)CC(=O)N[C@H](C(C)C)C(=O)N[C@@H]([C@@H](C)O)C(=O)N(C)CC(=O)N[C@@H](CC(C)C)C(=O)N2CCC[C@H]2C(=O)N(C)[C@@H](C(C)C)C(=O)N[C@@H](Cc2ccccc2)C(=O)N(C)[C@@H](Cc2ccccc2)C(=O)N(C)[C@@H](CC(C)C)C(=O)N[C@@H](C)C(=O)N1C", "note": "[DP-56] ([dV]T[Sar]LP[NMeV]F[NMeF][NMeL]A[NMeI]D-Piperidide; lactam N-12)", "values": [{"measurement": "Papp at 18 hours, 50 µM", "setting": "[1]; pH 6.5", "value": 30, "unit": "×10⁻⁶ cm/s"}, {"measurement": "microsomal CLint at 1 uM", "setting": "[2]; human, pH 7.4, CL NADPH(+)", "value": 43, "unit": "µL/min/mg"}]}
